One compound from patent US20180296532A1, “RNA-Focused Small Molecules for Inhibiting RNA Toxicity in Myotonic Dystrophy” (The Scripps Research Institute, priority 2015, published 2018) can be followed below.

SMILES strings stand for the structures.

The test system of experiment [1] is DM1 patient derived fibroblasts containing 500 CUG repeats. The experiment can be described thus: MBNL1 pre-mRNA splicing defects in DM1 patient derived fibroblasts. To be noted: 300 and 200 μM, 48 h. It counts as cell-based. The protocol:
Bioactivity of 2GN8 was further assessed using DM1 patient derived fibroblasts containing 500 CUG repeats. First 2GN8 was evaluated for improvement of DM1 MBNL1 splicing defects. In DM1, mis-splicing of MBNL1 exon 5 results in an increase in inclusion to ˜30% compared to ˜15% inclusion in healthy tissue.
Bioactivity of 2GN8 was assessed by using DM1 patient derived fibroblasts containing 500 CTG repeats (GM03987) and healthy fibroblasts (GM07492). Cells were grown as monolayers in 6 well plates in growth medium (1×EMEM (Lonza), 10% FBS, 1× glutagro (Corning), 1×MEM non-essential amino acids (Corning) and 1× antibiotic/antimycotic (Corning)). Once cells were ˜80% confluent, they were treated with growth medium containing 2GN8 (300, 200 and 100 μM). After 48 h the cells were lysed and the total RNA was harvested using a Zymo Quick RNA miniprep kit. An on-column DNA digestion was completed per the manufacturer's recommended protocol. Approximately 100 ng of total RNA was reverse transcribed at 50° C. using 100 units of SuperScript III reverse transcriptase (Life Technologies). Then 20% of the RT reaction was subjected to PCR using GoTaq DNA polymerase. RT-PCR products were observed after 25 cycles of 95° C. for 30 s, 58° C. for 30 s, 72° C. for 1 min and a final extension at 72° C. for 1 min. The products were separated on an 2% agarose gel ran at 100 V for 1 h in 1×TAE buffer. […]

Experiment [2] deals with r(CUG)12-MBNL1 complex. The experiment can be described thus: TR-FRET assay, disruption of the r(CUG)12-MBNL1 complex. The format is biochemical. From the text:
DM1 is caused by an RNA gain-of-function mechanism in which r(CUG)^exp binds and inactivates proteins involved RNA biogenesis.^(25-29) One protein, muscleblind-like 1 (MBNL1), regulates the alternative splicing of a sub-set of RNAs that are de-regulated in DM1.^(27, 43-45) We discovered that Formula (I) compounds disrupt the r(CUG)12-MBNL1 complex in vitro as determined by a previously described time-resolved fluorescence resonance energy transfer (TR-FRET) assay (FIG. 1A).^(46)
The in vitro activity of library compounds was assessed by disruption of the r(CUG)12-MBNL1 complex using a previously reported TR-FRET assay.^(32, 46) Biotinylated RNA was folded at 60° C. in 1× Folding Buffer (20 mM HEPES, pH 7.5, […], and 10 mM NaCl) and slowly cooled to room temperature. The buffer was then adjusted to 1× Assay Buffer (1× Folding Buffer supplemented with 2 mM MgCl2, 2 mM CaCl2, 5 mM DTT, 0.1% BSA, 0.05% Tween-20) and MBNL1-His6 was added. The final concentrations of RNA and MBNL1-His6 were 80 nM and 62 nM, respectively. After incubation at room temperature for 15 min, 8 μL aliquots were then dispensed into each well of low volume, 384-well plates using a flying reagent dispenser. […] Plates were incubated at room temperature for 1 h, and then TR-FRET was measured using a Molecular Devices SpectraMax M5 plate reader using an excitation wavelength of 345 nm and a 420 nm cutoff. Fluorescence was measured at 545 and 665 nm. Library compounds were screened for potential intrinsic fluorescence under screening conditions. No library compounds were fluorescent at 665 nm and two non-hit compounds have low fluorescence at 545 nm.
To calculate the percent inhibition of complex formation, the ratio of fluorescence intensity at 545 nm and 665 nm in the presence of compound was compared to the ratio in the absence of small molecule (100% r(CUG)12-MBNL1 complex formation) and in the absence of RNA and protein (no complex formation). […]

Experiment [3] deals with C2C12 cell line expressing firefly luciferase mRNA with r(CUG)800 in the 3′ UTR. The experiment can be described thus: Luciferase reporter assay for DM1 translational defects in C2C12 cells. It counts as cell-based. From the text:
Exemplary Formula (I) compound 2GN8 was studied for improving translational defects associated with DM1 (due to poor nucleocytoplasmic transport of r(CUG)^exp containing transcripts).^(30, 52, 53) In particular, a cellular model system was employed in which the C2C12 cell line stably expresses r(CUG)800 embedded in the 3′ UTR of firefly luciferase.^(54) Similar to DMPK mRNA in DM1-affected cells, the expanded repeat impairs nucleocytoplasmic transport of luciferase mRNA and thus decreases luciferase expression. Compounds that bind r(CUG)^exp and disrupt the r(CUG)^exp-MBNL1 complex may stimulate cytoplasmic transport of the luciferase mRNA and thus translation of luciferase (FIG. 9A).
C2C12 cell lines expressing 800 or 0 CTG repeats in the 3′ UTR of luciferase were grown as monolayers in 96-well plates in growth medium (1×DMEM, 10% FBS, 1× glutagro, (Corning) and 1× antibiotic/antimycotic (Corning))(66). Once the cells were 80% confluent, 2GN8 (300, 200 and 100 μM) was added in 100 μL of growth medium. Cells were treated for 48 h and then the cell count was normalized using WST-1 reagent (Roche). Then cells were washed with 1×DPBS and lysed by treating with 50 μL of PPBT lysis buffer at room temperature for 10 minutes. Then 50 μL of luciferase substrate was added and luminescence was measured.
On the technique in general: Reporter assays use an easily measured gene product as a stand-in for the process of interest.

For orientation: IC50 means the midpoint of a concentration-inhibition curve. A higher IC50 goes with weaker potency. Regarding `N=C(N)Nc1ccc2nc(-c3ccc(-c4nc5ccc(NC(=N)N)cc5[nH]4)cc3)[nH]c2c1` [Compound 2GN8], the “improvement of MBNL1 pre-mRNA splicing defects (exon 5 inclusion)” value in experiment [1] was “substantially improves”. The 50% inhibitory concentration (IC50) in experiment [2] was 39 ± 4 µM. Besides, in experiment [2] (ratio of TR-FRET IC50 values), the “enhancement in potency of 2GN8 over precursor compound 27” value is recorded as “roughly 14 fold”. The “luciferase activity in cells without r(CUG)800” value in experiment [3] (C2C12 cells expressing firefly luciferase mRNA without r(CUG)800) is on record as “does not affect luciferase activity”. In experiment [3] (C2C12 cells with r(CUG)800, 300 and 200 μM, 48 h), the “luciferase activity (improvement of translational defect)” value is reported as “significant increase”.
